Experimental data as given in paper PMC7385629 (Scientific Reports, 2020).

Tests used:
NTAT [1] = molecular target: T1, NTAT (Leishmania donovani, UniProt A0A3Q8INT3); set-up: gene LdCL_360030600; settings: co-substrate sodium pyruvate 100 mM; 30 µM PLP; pH 8; 37 °C; tyrosine 0-7 mM; apparent
NTAT [2] = molecular target: T1, NTAT; experiment: UV absorption scan […]-500 nm, aldimine bond formation; type: binding; set-up: gene LdCL_360030600; N-terminal 60 residues (180 bp) deleted, starts T61, runs to native C-terminus; His-tag from pET28a(+), E. coli BL21, Ni-NTA; parent gene 1,347 bp; settings: 4 mM PLP; 0.5 and 1 mg/ml protein; 25 °C; 30 min; covalent, internal aldimine at K286
CTAT = molecular target: T2, CTAT (Leishmania donovani, UniProt A0A3Q8INT3); experiment: as above; type: binding; settings: 4 mM PLP; 0.5 and 1 mg/ml protein; 25 °C; 30 min; covalent, internal aldimine at K286
T2 construct: gene LdCL_360030600; C-terminal 60 residues (180 bp) deleted; printed 389 aa (1,167 bp; end may be 388); two His-tags (N and C) from pET28a(+), about 45 kDa on gel, E. coli BL21, Ni-NTA
T2 sequence (A0A3Q8INT3 entry or part of it): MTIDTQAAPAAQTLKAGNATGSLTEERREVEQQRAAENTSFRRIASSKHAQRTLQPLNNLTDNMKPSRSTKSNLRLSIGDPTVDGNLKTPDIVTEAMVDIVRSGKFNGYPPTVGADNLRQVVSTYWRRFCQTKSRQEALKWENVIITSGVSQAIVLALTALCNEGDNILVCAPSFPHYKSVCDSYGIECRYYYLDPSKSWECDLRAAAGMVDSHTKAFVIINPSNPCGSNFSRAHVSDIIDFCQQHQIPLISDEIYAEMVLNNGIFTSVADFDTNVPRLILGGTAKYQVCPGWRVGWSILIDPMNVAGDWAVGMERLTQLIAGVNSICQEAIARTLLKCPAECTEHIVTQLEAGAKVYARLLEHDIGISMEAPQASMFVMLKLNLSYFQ

T1 sequence (A0A3Q8INT3 entry or part of it): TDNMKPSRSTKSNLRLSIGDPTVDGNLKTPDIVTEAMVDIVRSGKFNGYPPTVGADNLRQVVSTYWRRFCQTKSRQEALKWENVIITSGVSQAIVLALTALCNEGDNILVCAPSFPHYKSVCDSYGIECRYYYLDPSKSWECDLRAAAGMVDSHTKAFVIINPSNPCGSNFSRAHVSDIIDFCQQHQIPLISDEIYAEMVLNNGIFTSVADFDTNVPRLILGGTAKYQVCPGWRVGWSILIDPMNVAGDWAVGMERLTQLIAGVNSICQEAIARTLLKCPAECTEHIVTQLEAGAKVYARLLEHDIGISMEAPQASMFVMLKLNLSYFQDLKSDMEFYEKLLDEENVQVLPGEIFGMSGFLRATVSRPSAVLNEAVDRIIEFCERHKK

Structure (SMILES)	Km (NTAT [1]) [mM]	UV absorption scan 300-500 nm, aldimine bond formation (NTAT [2])	UV absorption scan 300-500 nm, aldimine bond formation (CTAT)
N[C@@H](Cc1ccc(O)cc1)C(=O)O [tyrosine]	3.47 ± 0.796	–	–
Cc1ncc(COP(=O)(O)O)c(C=O)c1O [PLP]	–	The increase in the concentration of NTAT or CTAT bound more PLP and formed aldimine bonds	In CTAT, the PLP binding was higher than NTAT
